These are literature values, as cited in patent publication US20100239665A1 (priority 2007, published 2010).

Structures are written as SMILES.

Turning to `COCCOC(=O)C1=C(C)NC(C)=C(C(=O)OC(C)C)C1c1cccc([N+](=O)[O-])c1` (stereo not shown) [Nimodipine], the solubility in water result was “practically insoluble in water”.
